In patent publication US10874643B2 (priority 2015, dated 2020):

How the values were obtained:
[1] = tested on: WT zebrafish exposed to 15 mM pentylenetetrazole; assay: PTZ-induced seizure behavior in wild-type larvae (locomotion); assay type: in vivo; conditions: 100 μM; 15 mM PTZ; n=10
[2] = tested on: scn1Lab mutants; assay: Locomotion tracking assay of seizure behavior (96-well format)
[3] = biological target: T1, GABAB(1b)(h) (Homo sapiens, UniProt Q9UBS5); assay: CEREP BioPrint binding; conditions: 1.0E-05M; agonist radioligand
T1 construct: CEREP (contract assay panel)
T1 sequence (Q9UBS5 1-844 isoform Q9UBS5-2): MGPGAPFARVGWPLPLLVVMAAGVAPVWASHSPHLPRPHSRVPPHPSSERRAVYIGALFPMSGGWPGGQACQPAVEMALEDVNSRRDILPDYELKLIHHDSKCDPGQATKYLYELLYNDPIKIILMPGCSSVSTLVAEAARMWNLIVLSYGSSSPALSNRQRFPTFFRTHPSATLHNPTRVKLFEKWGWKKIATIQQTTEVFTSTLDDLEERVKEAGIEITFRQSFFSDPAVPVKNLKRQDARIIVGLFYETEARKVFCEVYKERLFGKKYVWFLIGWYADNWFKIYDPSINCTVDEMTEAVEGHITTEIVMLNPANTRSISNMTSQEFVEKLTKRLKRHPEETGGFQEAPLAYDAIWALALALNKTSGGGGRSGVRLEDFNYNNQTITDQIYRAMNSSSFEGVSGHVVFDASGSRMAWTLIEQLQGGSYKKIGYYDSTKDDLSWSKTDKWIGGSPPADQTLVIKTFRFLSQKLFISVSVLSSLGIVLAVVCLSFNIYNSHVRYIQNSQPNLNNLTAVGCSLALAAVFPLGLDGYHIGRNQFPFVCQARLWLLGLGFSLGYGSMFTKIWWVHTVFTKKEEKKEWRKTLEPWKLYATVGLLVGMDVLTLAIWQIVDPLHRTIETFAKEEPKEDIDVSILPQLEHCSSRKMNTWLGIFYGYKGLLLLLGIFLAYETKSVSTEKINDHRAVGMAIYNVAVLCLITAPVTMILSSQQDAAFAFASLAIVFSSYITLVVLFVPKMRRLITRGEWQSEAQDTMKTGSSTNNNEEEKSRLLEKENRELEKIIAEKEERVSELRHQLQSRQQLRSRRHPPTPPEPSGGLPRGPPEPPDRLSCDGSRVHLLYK
Protocol: (§1) Clemizole (149934-L6) was tested in the CEREP BioPrint Profile, which is apanel of 139 different in vitro receptor binding and enzyme assays. For the initial BioPrint screen, afree compound concentration of 10 μM (LOE-5 M) was used. Compound binding was calculated as a % inhibition of the binding of aradioactively labeled ligand specific for each target. Compound enzyme inhibition effect was calculated as a % inhibition of control enzyme activity. In each experiment, the respective reference compound was tested concurrently with Clemizole (149934-L6), and the data were compared with historical values determined at CEREP. The experiment was accepted in accordance with CEREP's validation Standard Operating Procedure. Results showing an inhibition (or stimulation for assays run in basal conditions) higher than 50% are considered to represent significant effects of the test compounds.

[4] = tested on: GABA-gated Cl channel; assay: CEREP BioPrint binding; conditions: 1.0E-05M
Protocol: as §1

[5] = biological target: T2, 5-HT2B(h) (Homo sapiens, UniProt P41595); assay: CEREP BioPrint binding; conditions: 1.0E-05M; agonist radioligand
T2 construct: CEREP (contract assay panel)
T2 sequence (P41595 whole entry): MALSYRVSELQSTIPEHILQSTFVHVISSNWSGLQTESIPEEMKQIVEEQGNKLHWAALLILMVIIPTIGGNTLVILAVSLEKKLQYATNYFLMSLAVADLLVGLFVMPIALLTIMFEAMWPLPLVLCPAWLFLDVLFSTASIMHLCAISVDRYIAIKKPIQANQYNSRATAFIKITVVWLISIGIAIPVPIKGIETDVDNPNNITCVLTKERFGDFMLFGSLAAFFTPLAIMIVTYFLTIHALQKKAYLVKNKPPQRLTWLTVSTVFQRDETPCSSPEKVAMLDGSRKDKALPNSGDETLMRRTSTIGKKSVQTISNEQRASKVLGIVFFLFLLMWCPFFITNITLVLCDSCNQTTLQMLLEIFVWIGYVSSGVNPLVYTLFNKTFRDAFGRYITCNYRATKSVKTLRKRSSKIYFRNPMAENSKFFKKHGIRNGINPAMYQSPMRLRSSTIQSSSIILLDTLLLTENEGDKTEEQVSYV
Protocol: as §1

[6] = biological target: T3, 5-HT4e(h) (Homo sapiens, UniProt Q13639); assay: CEREP BioPrint binding; conditions: 1.0E-05M; agonist radioligand
T3 construct: CEREP (contract assay panel)
T3 sequence (Q13639 1-378 isoform Q13639-5): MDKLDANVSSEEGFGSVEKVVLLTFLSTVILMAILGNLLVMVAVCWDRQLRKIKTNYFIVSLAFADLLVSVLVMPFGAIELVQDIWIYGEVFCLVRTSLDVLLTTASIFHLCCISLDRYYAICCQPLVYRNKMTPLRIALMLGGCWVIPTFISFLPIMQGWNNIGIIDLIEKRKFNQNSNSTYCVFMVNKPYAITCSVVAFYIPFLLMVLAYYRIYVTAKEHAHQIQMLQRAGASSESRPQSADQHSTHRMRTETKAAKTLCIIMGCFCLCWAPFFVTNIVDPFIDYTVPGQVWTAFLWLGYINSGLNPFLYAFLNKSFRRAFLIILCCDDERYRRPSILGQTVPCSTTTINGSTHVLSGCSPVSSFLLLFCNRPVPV
Protocol: as §1

[7] = biological target: T4, 5-HT3(h) (Homo sapiens, UniProt P46098); assay: CEREP BioPrint binding; conditions: 1.0E-05M; agonist radioligand
T4 construct: CEREP (contract assay panel)
T4 sequence (P46098 24-478): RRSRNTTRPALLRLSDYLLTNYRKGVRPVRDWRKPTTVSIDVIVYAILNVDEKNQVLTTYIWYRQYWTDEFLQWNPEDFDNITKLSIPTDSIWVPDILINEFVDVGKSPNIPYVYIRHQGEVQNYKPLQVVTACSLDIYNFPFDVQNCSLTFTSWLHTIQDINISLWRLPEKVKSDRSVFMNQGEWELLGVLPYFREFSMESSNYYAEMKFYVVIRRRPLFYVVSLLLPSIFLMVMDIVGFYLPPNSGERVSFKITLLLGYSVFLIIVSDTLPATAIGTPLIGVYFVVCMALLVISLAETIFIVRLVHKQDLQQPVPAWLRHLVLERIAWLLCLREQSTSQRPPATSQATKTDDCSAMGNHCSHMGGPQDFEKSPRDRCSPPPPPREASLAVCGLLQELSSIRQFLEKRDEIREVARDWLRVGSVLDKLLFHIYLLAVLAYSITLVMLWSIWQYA
Protocol: as §1

[8] = biological target: T5, CB2(h) (Homo sapiens, UniProt P34972); assay: CEREP BioPrint binding; conditions: 1.0E-05M; agonist radioligand
T5 construct: CEREP (contract assay panel)
T5 sequence (P34972 whole entry): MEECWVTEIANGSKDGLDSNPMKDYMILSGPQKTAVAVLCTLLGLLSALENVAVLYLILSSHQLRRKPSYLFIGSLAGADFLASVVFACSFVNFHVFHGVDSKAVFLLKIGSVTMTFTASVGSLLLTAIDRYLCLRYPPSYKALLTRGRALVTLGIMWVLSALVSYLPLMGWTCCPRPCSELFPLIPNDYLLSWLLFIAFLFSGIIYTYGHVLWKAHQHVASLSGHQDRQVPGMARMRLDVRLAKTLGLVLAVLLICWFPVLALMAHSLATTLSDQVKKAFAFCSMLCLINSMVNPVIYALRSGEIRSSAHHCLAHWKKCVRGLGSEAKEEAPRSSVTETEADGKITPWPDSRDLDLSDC
Protocol: as §1

[9] = tested on: BZD (central); assay: CEREP BioPrint binding; conditions: 1.0E-05M; agonist radioligand
Protocol: as §1

[10] = tested on: GABA transporter; assay: CEREP BioPrint binding; conditions: 1.0E-05M
Protocol: as §1

[11] = tested on: SK-Ca channel; assay: CEREP BioPrint binding; conditions: 1.0E-05M
Protocol: as §1

[12] = biological target: T6, GABAA1(h) (Homo sapiens, UniProt P14867+P47870); assay: CEREP BioPrint binding; conditions: 1.0E-05M; agonist radioligand
T6 construct: CEREP (contract assay panel)
T6 sequence (P14867 28-456): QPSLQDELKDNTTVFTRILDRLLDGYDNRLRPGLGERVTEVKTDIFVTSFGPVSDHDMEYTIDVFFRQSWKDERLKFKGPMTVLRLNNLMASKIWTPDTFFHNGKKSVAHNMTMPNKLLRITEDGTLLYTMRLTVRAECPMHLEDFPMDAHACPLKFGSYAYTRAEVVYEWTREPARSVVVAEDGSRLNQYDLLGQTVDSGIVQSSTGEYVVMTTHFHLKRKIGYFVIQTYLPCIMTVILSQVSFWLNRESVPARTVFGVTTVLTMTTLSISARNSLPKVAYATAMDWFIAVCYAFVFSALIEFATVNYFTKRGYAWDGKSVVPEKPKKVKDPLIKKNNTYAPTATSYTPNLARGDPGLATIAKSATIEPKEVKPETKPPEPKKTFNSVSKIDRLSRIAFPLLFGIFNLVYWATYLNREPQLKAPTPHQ
T6 sequence (P47870 25-512 limits assumed): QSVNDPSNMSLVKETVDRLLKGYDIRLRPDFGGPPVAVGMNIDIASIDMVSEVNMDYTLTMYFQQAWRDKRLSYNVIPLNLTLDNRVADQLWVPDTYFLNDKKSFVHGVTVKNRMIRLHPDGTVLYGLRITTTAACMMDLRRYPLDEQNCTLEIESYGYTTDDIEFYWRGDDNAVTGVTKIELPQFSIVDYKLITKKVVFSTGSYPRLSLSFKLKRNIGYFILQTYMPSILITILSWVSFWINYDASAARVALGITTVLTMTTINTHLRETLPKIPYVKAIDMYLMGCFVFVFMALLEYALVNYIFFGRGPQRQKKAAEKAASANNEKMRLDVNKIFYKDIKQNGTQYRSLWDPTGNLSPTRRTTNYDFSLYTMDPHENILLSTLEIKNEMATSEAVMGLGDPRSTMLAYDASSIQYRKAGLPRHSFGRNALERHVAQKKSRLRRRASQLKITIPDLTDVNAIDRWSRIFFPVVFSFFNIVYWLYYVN
T6 sequence (P18507 40-467 partner limits assumed): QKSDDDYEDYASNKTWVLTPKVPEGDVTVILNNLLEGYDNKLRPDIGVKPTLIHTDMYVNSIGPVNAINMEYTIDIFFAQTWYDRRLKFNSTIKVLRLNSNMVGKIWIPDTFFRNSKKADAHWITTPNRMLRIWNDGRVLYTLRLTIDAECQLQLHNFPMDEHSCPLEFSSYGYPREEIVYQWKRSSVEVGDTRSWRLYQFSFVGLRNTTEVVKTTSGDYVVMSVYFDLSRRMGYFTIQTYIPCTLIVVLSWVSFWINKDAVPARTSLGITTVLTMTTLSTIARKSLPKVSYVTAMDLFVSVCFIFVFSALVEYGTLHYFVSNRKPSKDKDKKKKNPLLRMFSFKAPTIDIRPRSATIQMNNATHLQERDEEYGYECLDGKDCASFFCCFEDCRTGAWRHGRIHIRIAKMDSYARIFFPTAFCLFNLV
Protocol: as §1

[13] = biological target: T7, 5-HT2A(h) (Homo sapiens, UniProt P28223); assay: CEREP BioPrint binding; conditions: 1.0E-05M; agonist radioligand
T7 construct: CEREP (contract assay panel)
T7 sequence (P28223 whole entry): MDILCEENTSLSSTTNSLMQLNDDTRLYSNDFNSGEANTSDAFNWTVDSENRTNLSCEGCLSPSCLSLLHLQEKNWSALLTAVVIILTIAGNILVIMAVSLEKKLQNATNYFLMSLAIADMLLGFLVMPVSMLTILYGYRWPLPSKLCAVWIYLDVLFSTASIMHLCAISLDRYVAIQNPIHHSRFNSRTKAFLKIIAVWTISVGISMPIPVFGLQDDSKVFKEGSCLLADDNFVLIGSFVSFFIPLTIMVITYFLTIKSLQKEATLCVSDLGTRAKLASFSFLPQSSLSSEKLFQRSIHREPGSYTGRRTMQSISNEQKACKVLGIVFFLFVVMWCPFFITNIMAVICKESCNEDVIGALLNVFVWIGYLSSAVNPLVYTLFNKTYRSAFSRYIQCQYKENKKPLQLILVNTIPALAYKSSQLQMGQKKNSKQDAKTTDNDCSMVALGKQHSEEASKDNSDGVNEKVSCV
Protocol: as §1

[14] = biological target: T8, 5-HT1D(h) (Homo sapiens, UniProt P28221); assay: CEREP BioPrint binding; conditions: 1.0E-05M; agonist radioligand
T8 construct: CEREP (contract assay panel)
T8 sequence (P28221 whole entry): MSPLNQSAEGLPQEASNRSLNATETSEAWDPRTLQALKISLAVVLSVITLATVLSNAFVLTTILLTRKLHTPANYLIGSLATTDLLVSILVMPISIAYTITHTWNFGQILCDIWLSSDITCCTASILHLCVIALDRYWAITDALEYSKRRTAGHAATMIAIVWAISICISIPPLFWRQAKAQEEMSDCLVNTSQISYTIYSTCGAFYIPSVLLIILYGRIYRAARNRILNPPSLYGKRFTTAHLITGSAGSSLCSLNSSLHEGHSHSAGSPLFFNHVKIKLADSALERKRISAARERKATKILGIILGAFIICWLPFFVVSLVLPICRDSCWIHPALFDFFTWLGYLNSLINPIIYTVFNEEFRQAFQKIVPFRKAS
Protocol: as §1

[15] = biological target: T9, 5-HT1B(h) (Homo sapiens, UniProt P28222); assay: CEREP BioPrint binding; conditions: 1.0E-05M; agonist radioligand
T9 construct: CEREP (contract assay panel)
T9 sequence (P28222 whole entry): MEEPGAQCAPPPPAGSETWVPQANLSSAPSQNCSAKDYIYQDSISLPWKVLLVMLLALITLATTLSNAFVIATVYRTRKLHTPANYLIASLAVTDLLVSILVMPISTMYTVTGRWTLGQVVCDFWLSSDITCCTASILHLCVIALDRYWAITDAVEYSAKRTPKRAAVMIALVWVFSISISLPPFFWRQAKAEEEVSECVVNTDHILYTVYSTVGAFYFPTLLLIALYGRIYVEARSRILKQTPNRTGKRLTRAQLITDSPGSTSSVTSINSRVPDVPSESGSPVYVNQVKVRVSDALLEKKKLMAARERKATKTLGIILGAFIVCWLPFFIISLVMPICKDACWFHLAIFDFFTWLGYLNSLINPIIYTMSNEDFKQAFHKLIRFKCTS
Protocol: as §1

[16] = biological target: T10, CB1(h) (Homo sapiens, UniProt P21554); assay: CEREP BioPrint binding; conditions: 1.0E-05M; agonist radioligand
T10 construct: CEREP (contract assay panel)
T10 sequence (P21554 whole entry): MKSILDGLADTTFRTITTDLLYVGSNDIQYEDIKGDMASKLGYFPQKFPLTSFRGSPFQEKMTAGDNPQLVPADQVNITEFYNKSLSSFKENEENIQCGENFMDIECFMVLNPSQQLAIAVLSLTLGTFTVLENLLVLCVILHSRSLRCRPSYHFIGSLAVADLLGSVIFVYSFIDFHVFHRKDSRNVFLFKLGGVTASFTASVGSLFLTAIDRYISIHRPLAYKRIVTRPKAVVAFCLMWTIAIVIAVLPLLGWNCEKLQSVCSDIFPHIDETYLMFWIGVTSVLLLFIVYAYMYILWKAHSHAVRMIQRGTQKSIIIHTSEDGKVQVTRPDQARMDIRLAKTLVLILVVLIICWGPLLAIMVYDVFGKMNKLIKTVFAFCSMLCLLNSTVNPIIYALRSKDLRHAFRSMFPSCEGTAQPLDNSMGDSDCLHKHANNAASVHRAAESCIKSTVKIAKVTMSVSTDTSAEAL
Protocol: as §1

[17] = biological target: T11, 5-HT1A(h) (Homo sapiens, UniProt P08908); assay: CEREP BioPrint binding; conditions: 1.0E-05M; agonist radioligand
T11 construct: CEREP (contract assay panel)
T11 sequence (P08908 1-422): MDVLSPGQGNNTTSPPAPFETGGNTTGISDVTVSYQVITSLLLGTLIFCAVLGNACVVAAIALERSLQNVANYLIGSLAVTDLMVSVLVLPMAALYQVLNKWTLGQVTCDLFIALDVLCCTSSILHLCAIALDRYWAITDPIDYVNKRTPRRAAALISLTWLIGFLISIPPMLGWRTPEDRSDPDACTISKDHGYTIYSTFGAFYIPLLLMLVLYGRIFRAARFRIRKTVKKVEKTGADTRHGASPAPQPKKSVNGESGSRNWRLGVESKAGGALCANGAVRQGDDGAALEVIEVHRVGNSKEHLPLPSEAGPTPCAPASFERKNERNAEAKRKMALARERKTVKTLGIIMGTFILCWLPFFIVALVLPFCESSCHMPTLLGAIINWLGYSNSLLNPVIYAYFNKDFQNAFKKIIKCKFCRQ
Protocol: as §1

[18] = tested on: scn1Lab mutants; assay type: in vivo, zebrafish

SMILES: Clc1ccc(Cn2c(CN3CCCC3)nc3ccccc32)cc1 [Clemizole]
- seizure behavior [1]: effective in reducing seizure behavior
- swim activity / seizure behavior, third evaluation ([2]; 100 μM, 10 fish per trial): effective in suppressing spontaneous seizure activity
- seizure-induced swim activity and mean velocity, re-test on separate clutch ([2]; 667, 67 and 6.7 μM): effective in reducing seizure-induced swim activity and mean velocity
- effect on seizure behavior ([2]; concentrations between 6.25 and 50 μM, n=33): no significant effect
- % inhibition of the binding of a radioactively labeled ligand, GABAB(1b)(h) [3]: −5.9%
- % inhibition of the binding of a radioactively labeled ligand, GABA-gated Cl channel [4]: 24.9%
- % inhibition of the binding of a radioactively labeled ligand, 5-HT2B(h) [5]: 82.5%
- % inhibition of the binding of a radioactively labeled ligand, 5-HT4e(h) [6]: −1.0%
- % inhibition of the binding of a radioactively labeled ligand, 5-HT3(h) [7]: 9.8%
- % inhibition of the binding of a radioactively labeled ligand, CB2(h) [8]: 28.4%
- % inhibition of the binding of a radioactively labeled ligand, BZD (central) [9]: −19.6%
- % inhibition of the binding of a radioactively labeled ligand, GABA transporter [10]: −5.9%
- % inhibition of the binding of a radioactively labeled ligand, SK-Ca channel [11]: −0.2%
- % inhibition of the binding of a radioactively labeled ligand, GABAA1(h) [12]: −9.6%
- % inhibition of the binding of a radioactively labeled ligand, 5-HT2A(h) [13]: 86%
- % inhibition of the binding of a radioactively labeled ligand, 5-HT1D(h) [14]: 22.7%
- % inhibition of the binding of a radioactively labeled ligand, 5-HT1B(h) [15]: 4.4%
- % inhibition of the binding of a radioactively labeled ligand, CB1(h) [16]: 17.9%
- % inhibition of the binding of a radioactively labeled ligand, 5-HT1A(h) [17]: 19.5%
- forebrain electrographic seizure activity in the same mutants after the locomotion assay ([18]; 100 μM, mutant embedded in agar): effective in suppressing spontaneous seizure activity
- burst duration ([18]; clemizole-treated mutants (100 μM), n=7, un-treated mutants 926±414): 154 ± 127 ms
- burst frequency ([18]; mutants exposed to clemizole first in locomotion assay (100 μM), n=7, un-treated mutants 1.5±0.3): 0.2±0.01 bursts/min
